# Experimental data published in US11986532B2 (Arvinas Operations, Inc., priority 2021, dated 2024).
# Read-outs that look alike come from different tables or passages of the source.
# Target: T1, BCL6 (Homo sapiens, UniProt P41182)
# T1 construct: endogenous in cells; host or cells: T47D breast cancer epithelial cells
# Assay: Immunofluorescence protocol for high content imaging of BCL6 (degradation) in T47D cells, 3 days compound treatment
# Type: cell-based
# Conditions: for DC50: read-out: Mean DC50 (nM)* category; for Dmax: read-out: Mean Dmax (%)** category
# How it was run: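 T47D, RPMI1640/10% FBS; cpd 11-pt 3-fold, top 0.1 or 1 μM final; 3 d, 37° C. Fix 4% PFA, perm 0.1% Triton, block 3% BSA; anti-BCL6 1:300 o/n 4° C; Alexa-488 2°, CellMask-647, Hoechst. Imaged 10×, 4 fields/well.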
# [1] = T47D cells, 3 days compound treatment
SMILES,DC50 [1] [nM],Dmax [1] [%],Dmax (T47D) [%],DC50 [nM]
CNC(=O)COc1cc2c(F)c(Nc3nc(N4CCC(O[C@H]5C[C@H](N6CCN(c7ccc8c(c7C)C(=O)N(C7CCC(=O)NC7=O)C8=O)CC6)C5)CC4)ncc3Cl)ccc2n(C(C)C)c1=O (stereo partly shown) [Compound 195],< 10,≥ 70,–,–
"CNC(=O)COc1cc2cc(Nc3nc(N4CCC(O[C@H]5C[C@H](N6CCC7(CCN(c8ccc9c(c8)C(=O)N(C8CCC(=O)NC8=O)C9=O)CC7)C6)C5)CC4)ncc3Cl)ccc2n(C(C)C)c1=O (stereo partly shown) [Compound 362, 2-({6-[(5-chloro-2-{4-[(1r,3r)-3-{8-[2-(2,6-dioxopiperidin-3-yl)-1,3-dioxo-2,3-dihydro-1H-isoindol-5-yl]-2,8-diazaspiro [4.5]decan-2-yl}cyclobutoxy]piperidin-1-yl}pyrimidin-4-yl)amino]-2-oxo-1-(propan-2-yl)-1,2-dihydroquinolin-3-yl}oxy)-N-methylacetamide]",–,–,≥ 70,10 to 50
"CNC(=O)COc1cc2cc(Nc3nc(N4CCC(CN5CCC6(CC5)CN(c5ccc7c(c5)C(=O)N(C5CCC(=O)NC5=O)C7=O)C6(C)C)CC4)ncc3Cl)ccc2n(C(C)C)c1=O (stereo not shown) [Compound 133, 2-{[6-({5-chloro-2-[4-({2-[2-(2,6-dioxopiperidin-3-yl)-1,3-dioxo-2,3-dihydro-1H-isoindol-5-yl]-1,1-dimethyl-2,7-diazaspiro[3.5]nonan-7-yl}methyl)piperidin-1-yl]pyrimidin-4-yl}amino)-2-oxo-1-(propan-2-yl)-1,2-dihydroquinolin-3-yl]oxy}-N-methylacetamide]",< 10,50 to 70,–,–
"CNC(=O)COc1cc2cc(Nc3nc(N4CCC(O[C@H]5C[C@H](N6CC7(CCN7c7ccc8c(c7)CN(C7CCC(=O)NC7=O)C8=O)C6)C5)CC4)ncc3Cl)ccc2n(C(C)C)c1=O (stereo partly shown) [Compound 309, 2-({6-[(5-chloro-2-{4-[(1r,3r)-3-{1-[2-(2,6-dioxopiperidin-3-yl)-1-oxo-2,3-dihydro-1H-isoindol-5-yl]-1,6-diazaspiro[3.3]heptan-6-yl}cyclobutoxy]piperidin-1-yl}pyrimidin-4-yl)amino]-2-oxo-1-(propan-2-yl)-1,2-dihydroquinolin-3-yl}oxy)-N-methylacetamide]",–,–,50 to 70,< 10
"CNC(=O)COc1cc2cc(Nc3nc(N4CCC(O[C@H]5C[C@H](N6CCC(F)(c7ccc8c(c7F)CN(C7CCC(=O)NC7=O)C8=O)CC6)C5)CC4)ncc3Cl)ccc2n(C(C)C)c1=O (stereo partly shown) [Compound 278, 2-({6-[(5-chloro-2-{4-[(1r,3r)-3-{4-[2-(2,6-dioxopiperidin-3-yl)-4-fluoro-1-oxo-2,3-dihydro-1H-isoindol-5-yl]-4-fluoropiperidin-1-yl}cyclobutoxy]piperidin-1-yl}pyrimidin-4-yl)amino]-2-oxo-1-(propan-2-yl)-1,2-dihydroquinolin-3-yl}oxy)-N-methylacetamide]",–,–,≥ 70,< 10
"CNC(=O)COc1cc2cc(Nc3nc(N4CCC(O[C@H]5C[C@H](N6CCN(c7ccc8c(c7C)CN(C7CCC(=O)NC7=O)C8=O)CC6)C5)CC4)ncc3Cl)ccc2n(C(C)C)c1=O (stereo partly shown) [Compound 416, 2-({6-[(5-chloro-2-{4-[(1r,3r)-3-{4-[2-(2,6-dioxopiperidin-3-yl)-4-methyl-1-oxo-2,3-dihydro-1H-isoindol-5-yl]piperazin-1-yl}cyclobutoxy]piperidin-1-yl}pyrimidin-4-yl)amino]-2-oxo-1-(propan-2-yl)-1,2-dihydroquinolin-3-yl}oxy)-N-methylacetamide]",–,–,≥ 70,< 10
"CNC(=O)COc1cc2cc(Nc3nc(N4CCN(CC5(F)CCN(c6cccc7c6CN(C6CCC(=O)NC6=O)C7=O)CC5)CC4)ncc3Cl)ccc2n(C(C)C)c1=O (stereo not shown) [Compound 114, 2-{[6-({5-chloro-2-[4-({1-[2-(2,6-dioxopiperidin-3-yl)-1-oxo-2,3-dihydro-1H-isoindol-4-yl]-4-fluoropiperidin-4-yl}methyl)piperazin-1-yl]pyrimidin-4-yl}amino)-2-oxo-1-(propan-2-yl)-1,2-dihydroquinolin-3-yl]oxy}-N-methylacetamide]",< 10,50 to 70,–,–
"CNC(=O)COc1cc2cc(Nc3nc(N4CCC(O[C@H]5C[C@H](N6CCN(c7ccc8c(c7Cl)CN([C@H]7CCC(=O)NC7=O)C8=O)[C@H](C)C6)C5)CC4)ncc3Cl)ccc2n(C(C)C)c1=O [Compound 267, 2-({6-[(5-chloro-2-{4-[(1r,3r)-3-[(3R)-4-{4-chloro-2-[(3S)-2,6-dioxopiperidin-3-yl]-1-oxo-3H-isoindol-5-yl}-3-methylpiperazin-1-yl]cyclobutoxy]piperidin-1-yl}pyrimidin-4-yl)amino]-1-isopropyl-2-oxoquinolin-3-yl}oxy)-N-methylacetamide]",–,–,50 to 70,< 10
"CNC(=O)COc1cc2cc(Nc3nc(N4CCC(N5CCC6(CN(CC7CCN(c8ccc9c(c8)C(=O)N(C8CCC(=O)NC8=O)C9=O)CC7)C6)C5)CC4)ncc3Cl)ccc2n(C(C)C)c1=O (stereo not shown) [Compound 228, 2-({6-[(5-chloro-2-{4-[2-({1-[2-(2,6-dioxopiperidin-3-yl)-1,3-dioxo-2,3-dihydro-1H-isoindol-5-yl]piperidin-4-yl}methyl)-2,6-diazaspiro[3.4]octan-6-yl]piperidin-1-yl}pyrimidin-4-yl)amino]-2-oxo-1-(propan-2-yl)-1,2-dihydroquinolin-3-yl}oxy)-N-methylacetamide]",–,–,50 to 70,10 to 50
"CNC(=O)COc1cc2cc(Nc3nc(N4CCC(O[C@H]5C[C@H](N6CC=C(c7ccc8c(c7)CN(C7CCC(=O)NC7=O)C8=O)CC6)C5)CC4)ncc3Cl)ccc2n(C(C)C)c1=O (stereo partly shown) [Compound 323, 2-({6-[(5-chloro-2-{4-[(1r,3r)-3-{4-[2-(2,6-dioxopiperidin-3-yl)-1-oxo-2,3-dihydro-1H-isoindol-5-yl]-1,2,3,6-tetrahydropyridin-1-yl}cyclobutoxy]piperidin-1-yl}pyrimidin-4-yl)amino]-2-oxo-1-(propan-2-yl)-1,2-dihydroquinolin-3-yl}oxy)-N-methylacetamide]",–,–,50 to 70,< 10
CNC(=O)COc1cc2cc(Nc3nc(N4CCN(CC5CCN(c6cc7c(c(OC)c6)C(=O)N(C6CCC(=O)NC6=O)C7)CC5)CC4)ncc3Cl)ccc2n(C(C)C)c1=O (stereo not shown) [Compound 26],< 10,50 to 70,–,–
"CNC(=O)COc1cc2cc(Nc3nc(N4CCCCC4)ncc3Cl)ccc2n(CCOc2ccc3c(c2)C(=O)N(C2CCC(=O)NC2=O)C3=O)c1=O (stereo not shown) [Compound 29, 2-[(6-{[5-chloro-2-(piperidin-1-yl)pyrimidin-4-yl]amino}-1-(2-{[2-(2,6-dioxopiperidin-3-yl)-1,3-dioxo-2,3-dihydro-1H-isoindol-5-yl]oxy}ethyl)-2-oxo-1,2-dihydroquinolin-3-yl)oxy]-N-methylacetamide]",10 to 50,50 to 70,–,–
"CNC(=O)COc1cc2cc(Nc3nc(N4CCC(O[C@H]5C[C@H](N6CCC(c7cc(F)c8c(c7)CN(C7CCC(=O)NC7=O)C8=O)CC6)C5)CC4)ncc3Cl)ccc2n(C(C)C)c1=O (stereo partly shown) [Compound 92, 2-({6-[(5-chloro-2-{4-[(1r,3r)-3-{4-[2-(2,6-dioxopiperidin-3-yl)-7-fluoro-1-oxo-2,3-dihydro-1H-isoindol-5-yl]piperidin-1-yl}cyclobutoxy]piperidin-1-yl}pyrimidin-4-yl)amino]-2-oxo-1-(propan-2-yl)-1,2-dihydroquinolin-3-yl}oxy)-N-methylacetamide]",< 10,≥ 70,–,–
"CNC(=O)COc1cc2cc(Nc3nc(N4CCN(CC5CCN(c6cc(OC)cc7c6CN(C6CCC(=O)NC6=O)C7=O)CC5)CC4)ncc3Cl)ccc2n(C(C)C)c1=O (stereo not shown) [Compound 119, 2-{[6-({5-chloro-2-[4-({1-[2-(2,6-dioxopiperidin-3-yl)-6-methoxy-1-oxo-2,3-dihydro-1H-isoindol-4-yl]piperidin-4-yl}methyl)piperazin-1-yl]pyrimidin-4-yl}amino)-2-oxo-1-(propan-2-yl)-1,2-dihydroquinolin-3-yl]oxy}-N-methylacetamide]",< 10,50 to 70,–,–
"CNC(=O)COc1cc2cc(Nc3nc(N4CCC(CN5CCC6(CN(c7cccc8c7CN(C7CCC(=O)NC7=O)C8=O)C6)C(F)C5)CC4)ncc3Cl)ccc2n(C(C)C)c1=O (stereo not shown) [Compound 326, 2-{[6-({5-chloro-2-[4-({2-[2-(2,6-dioxopiperidin-3-yl)-1-oxo-2,3-dihydro-1H-isoindol-4-yl]-5-fluoro-2,7-diazaspiro[3.5]nonan-7-yl}methyl)piperidin-1-yl]pyrimidin-4-yl}amino)-2-oxo-1-(propan-2-yl)-1,2-dihydroquinolin-3-yl]oxy}-N-methylacetamide]",–,–,≥ 70,< 10
"CNC(=O)COc1cc2c(F)c(Nc3nc(N4CCC(F)(CN5CCC6(CC5)CN(c5ccc7c(c5F)CN(C5CCC(=O)NC5=O)C7=O)C6)CC4)ncc3Cl)ccc2n(C(C)C)c1=O (stereo not shown) [Compound 390, 2-{[6-({5-chloro-2-[4-({2-[2-(2,6-dioxopiperidin-3-yl)-4-fluoro-1-oxo-2,3-dihydro-1H-isoindol-5-yl]-2,7-diazaspiro[3.5]nonan-7-yl}methyl)-4-fluoropiperidin-1-yl]pyrimidin-4-yl}amino)-5-fluoro-2-oxo-1-(propan-2-yl)-1,2-dihydroquinolin-3-yl]oxy}-N-methylacetamide]",–,–,≥ 70,< 10
"CNC(=O)COc1cc2cc(Nc3nc(N4CCC(CN5CCC6(CN(c7ccc8c(c7)C(=O)N(C7CCC(=O)NC7=O)C8=O)C6)C(F)(F)C5)CC4)ncc3Cl)ccc2n(C)c1=O (stereo not shown) [Compound 127, 2-{[6-({5-chloro-2-[4-({2-[2-(2,6-dioxopiperidin-3-yl)-1,3-dioxo-2,3-dihydro-1H-isoindol-5-yl]-5,5-difluoro-2,7-diazaspiro[3.5]nonan-7-yl}methyl)piperidin-1-yl]pyrimidin-4-yl}amino)-1-methyl-2-oxo-1,2-dihydroquinolin-3-yl]oxy}-N-methylacetamide]",< 10,< 50,–,–
